Experiments:
anaesthetized rats = test: Ischemia-Induced Arrhythmias in Anaesthetized Rats; assay type: in vivo, rat (Male Charles Foster); set-up: key to VF Percent inhibition: NP: No protection
Description: Ischemia-Induced Arrhythmias in Anaesthetized Rats:
Male Charles Foster rats (220-260 g) were anaesthetized with Pentobarbitone sodium. Animals were artificially ventilated. Blood pressure was recorded through carotid artery. Thoracotomy was performed to expose the heart. Left Anterior Descending (LAD) coronary artery was identified. Test compound was administered either orally […] before anaesthesia (40 minutes before LAD artery ligation) or intravenously (5 minutes before LAD artery ligation). Resulting arrhythmias during the 15 minute period of ligation were recorded and analyzed according to Lambeth Convention (Walker M. J. A, et al, 1988, Cardiovascular Research, 22, 447-455). Antiarrhythmic effect of the test compound was expressed as dose dependent inhibition of the duration of Ventricular Tachycardia (VT) and Ventricular Fibrillation (VF).

Na^+ /H^+ -exchanger = molecular target: T1, Na^+ /H^+ -exchanger (Oryctolagus cuniculus, UniProt P23791); test: Sodium-Proton exchange inhibition in rabbit erythrocytes; assay type: cell-based, rabbit (Albino, New Zealand strain); settings: 37° C., 1 hour, hyperosmolar sucrose buffer, 0.1 mM Ouabain, read-out: IC50 (concentration necessary to reduce the erythrocyte sodium content to 50%)
T1 construct: Na^+ /H^+ -exchanger activity in the erythrocytes; endogenous in cells; host or cells: erythrocytes (whole blood from the ear vein) of cholesterol-fed New Zealand albino rabbits
Text: Sodium-Proton exchange inhibition in rabbit erythrocytes:
Albino rabbits of New Zealand strain were fed with 2% cholesterol diet for six weeks prior to collecting blood for the determination of Na^+ /H^+ -exchanger activity in the erythrocytes. Eypercholesteremia has been reported to increase the exchanger activity in the rabbit erythrocytes (Scholz et al, 1990; Arteriosklerose--Neue Aspekte aus Zellbiologie und Molekulargenetik, Epidemiologie und Klinik; Assmann, G, et al, Eds, Braunschweig, Wiesbaden, Vieweg, 296-302). Blood samples were collected from the ear vein and hematocrit was determined. About 200 μl of blood was incubated at 37° C. for 1 hour with hyperosmolar sucrose buffer containing 0.1 mM Ouabain in the presence and absence of test sample. After the incubation period, the reaction was stopped by addition of 5 ml of ice cold MgCl2 solution containing 0.1 mM Ouabain. The erythrocytes were washed three times with 5 ml quantities of MgCl2 solution. They were hemolyzed by the addition of 4 ml of distilled water and the sodium content of the hemolyzed was determined by flame-photometry. The activity of the test compound was determined by its ability to reduce the sodium content of the erythrocyte and was expressed as IC50 which is the concentration necessary to reduce the erythrocyte sodium content to 50%.

anaesthetized rat = test: Myocardial Infarction in the Anaesthetized Rat; assay type: in vivo; settings: intravenous 5 minutes before ligation; 1 h ligation, 1 h reperfusion
Description: Myocardial Infarction in the Anaesthetized Rat:
Rats were prepared as in earlier experiments. Compounds were administered intravenously 5 minutes before ligation. The experiment consisted of one hour of ligation followed by one hour of reperfusion. Myocardial infarction was assessed by double dye technique using Evans blue and 2,3,5-Triphenyltetrazolium to identify area at risk and area of infarction respectively. Extent of infarction was expressed as a percent of area at risk. (Simpson et al, 1987, Circulation Research, 60, 666-673)

isolated rat heart = test: Reperfusion Induced Arrhythmias in the isolated rat heart; set-up: species or system rat (Charles Foster); settings: LAD ligation 15 min, reperfusion 30 min, read-out: IC50 for VFD (50% reduction of duration of ventricular fibrillation)
Description: Reperfusion Induced Arrhythmias in the isolated rat heart:
[…] Charles Foster rats of either sex (250-300 g) were sacrificed by stunning and exsanguination. Hearts were quickly removed and perfused according to Langendorffs method. Different concentrations of test compound were added into the perfusing medium. After 20 min of the equilibration period Left Anterior Descending (LAD) coronary artery was ligated. 15 minutes later the ligature was removed and reperfusion was allowed for next 30 minutes. During reperfusion period ECG was monitored. Duration of Ventricular Fibrillation (VFD) was the main parameter of assessment. Anti-arrhythmic activity was examined as the concentration of the test compound required to cause a 50% reduction of the VFD.

[1] = tested on: disturbances in cardiac rhythm; settings: Circulation 79, 1257-1263 (1989); cited from earlier work
rat hearts = settings: isolated rat hearts; Eur. Heart J. 9 {supplement 1}: 167 (1988); cited from earlier work

T1 sequence (P23791 whole entry): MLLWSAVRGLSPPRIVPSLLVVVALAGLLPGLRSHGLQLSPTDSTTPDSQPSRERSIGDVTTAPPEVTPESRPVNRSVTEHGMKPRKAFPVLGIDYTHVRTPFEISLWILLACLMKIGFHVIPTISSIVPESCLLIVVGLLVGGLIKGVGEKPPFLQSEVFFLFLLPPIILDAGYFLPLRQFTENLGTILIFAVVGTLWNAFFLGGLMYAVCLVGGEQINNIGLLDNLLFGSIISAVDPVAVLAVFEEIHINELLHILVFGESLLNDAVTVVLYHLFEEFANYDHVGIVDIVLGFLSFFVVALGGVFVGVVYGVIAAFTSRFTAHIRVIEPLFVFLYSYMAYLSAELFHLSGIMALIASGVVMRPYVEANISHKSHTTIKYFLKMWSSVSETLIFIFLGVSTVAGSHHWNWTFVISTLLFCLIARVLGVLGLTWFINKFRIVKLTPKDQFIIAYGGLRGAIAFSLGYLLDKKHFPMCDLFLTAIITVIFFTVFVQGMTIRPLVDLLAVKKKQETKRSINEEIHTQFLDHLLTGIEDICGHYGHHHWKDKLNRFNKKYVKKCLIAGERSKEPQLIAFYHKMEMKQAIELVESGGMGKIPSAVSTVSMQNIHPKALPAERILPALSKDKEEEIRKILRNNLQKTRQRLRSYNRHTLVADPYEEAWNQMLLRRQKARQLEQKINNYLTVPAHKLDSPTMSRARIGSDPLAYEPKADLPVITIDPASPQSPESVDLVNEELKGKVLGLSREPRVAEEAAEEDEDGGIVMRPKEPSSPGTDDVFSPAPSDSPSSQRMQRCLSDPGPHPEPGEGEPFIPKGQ

| SMILES | VF Percent inhibition (anaesthetized rats; Intravenous, 0.1 mg/kg) | VT Percent inhibition (anaesthetized rats; Intravenous, 0.1 mg/kg) | VF Percent inhibition (anaesthetized rats; Intravenous, 0.3 mg/kg) | VT Percent inhibition (anaesthetized rats; Intravenous, 0.3 mg/kg) | VF Percent inhibition (anaesthetized rats; Intravenous, 1.0 mg/kg) | VT Percent inhibition (anaesthetized rats; Intravenous, 1.0 mg/kg) | VF Percent inhibition (anaesthetized rats; Oral, 1 mg/kg) | VT Percent inhibition (anaesthetized rats; Oral, 1 mg/kg) | IC50 (Na^+ /H^+ -exchanger) | Protection against infarction (anaesthetized rat) | IC50 (isolated rat heart) | suppression of artificially induced ventricular fibrillation (rat hearts) | other results |
| --- | --- | --- | --- | --- | --- | --- | --- | --- | --- | --- | --- | --- | --- |
| CC1=C(C(=O)N=C(N)N)Cc2ccccc21 [Compound 2] | 100% | 57 ± 17% | 100% | 90 ± 3% | 100% | 98 ± 1% | 68% | 26 ± 0% | 0.09 µM | 17% | 0.025 µM | – | VF Percent inhibition (anaesthetized rats; Oral, 3 mg/kg): 93%; VT Percent inhibition (anaesthetized rats; Oral, 3 mg/kg): 31 ± 21%; VF Percent inhibition (anaesthetized rats; Oral, 10 mg/kg): 00%; VT Percent inhibition (anaesthetized rats; Oral, 10 mg/kg): 73 ± 8% |
| CC1=C(C(=O)N=C(N)N)Cc2c(Cl)cccc21 [Compound 10] | 100% | 20 ± 24% | 100% | 81 ± 8% | 100% | 97 ± 1% | 100% | 67 ± 11% | 0.018 µM | 68% | 0.017 µM | – | VF Percent inhibition (anaesthetized rats; Oral, 0.1 mg/kg): NP; VT Percent inhibition (anaesthetized rats; Oral, 0.1 mg/kg): 32 ± 12%; VF Percent inhibition (anaesthetized rats; Oral, 0.3 mg/kg): 84%; VT Percent inhibition (anaesthetized rats; Oral, 0.3 mg/kg): 69 ± 11% |
| N=C(N)NC(=O)c1nc(Cl)c(N)nc1N [amiloride] | – | – | – | – | – | – | – | – | – | – | – | suppress an artificially induced ventricular fibrillation completely | antiarrhythmic effect [1]: only slight |
| CCN(c1nc(N)c(C(=O)N=C(N)N)nc1Cl)C(C)C [ethylisopropylamiloride] | – | – | – | – | – | – | – | – | – | – | – | even more potent than amiloride | – |
